What was measured:
Type in all cases: functional, cell-based
[1] = molecular target: T1, 5-hydroxytryptamine receptor 6 (Homo sapiens, UniProt P50406); assay: Antagonist activity at human recombinant 5HT6 receptor expressed in HeLa cells assessed as inhibition of 5HT-induced intracellular calcium level at 10 uM incubated for 15 mins prior to 5HT-induction measured after 1 hr by fluo-4-AM-based fluorimetry
[2] = molecular target: T1, 5-hydroxytryptamine receptor 6; assay: Antagonist activity at human recombinant 5HT6 receptor expressed in HeLa cells assessed as inhibition of 5HT-induced intracellular calcium level incubated for 15 mins prior to 5HT-induction measured after 1 hr by fluo-4-AM-based fluorimetry
[3] = molecular target: T1, 5-hydroxytryptamine receptor 6; assay: Antagonist activity at human 5HT6 receptor expressed in HEK293 cells assessed as inhibition of 5HT-induced intracellular calcium level at 10 uM incubated for 15 mins prior to 5HT-induction measured after 1 hr by fluo-4-AM-based fluorimetry
[4] = molecular target: 5-hydroxytryptamine receptor 4 (Homo sapiens) (UniProt Q13639); assay: Antagonist activity at human 5HT4 receptor expressed in HEK293 cells assessed as inhibition of 5HT-induced intracellular calcium level at 10 uM incubated for 15 mins prior to 5HT-induction measured after 1 hr by fluo-4-AM-based fluorimetry
Chain of 5-hydroxytryptamine receptor 4 (Homo sapiens) (Q13639 whole entry): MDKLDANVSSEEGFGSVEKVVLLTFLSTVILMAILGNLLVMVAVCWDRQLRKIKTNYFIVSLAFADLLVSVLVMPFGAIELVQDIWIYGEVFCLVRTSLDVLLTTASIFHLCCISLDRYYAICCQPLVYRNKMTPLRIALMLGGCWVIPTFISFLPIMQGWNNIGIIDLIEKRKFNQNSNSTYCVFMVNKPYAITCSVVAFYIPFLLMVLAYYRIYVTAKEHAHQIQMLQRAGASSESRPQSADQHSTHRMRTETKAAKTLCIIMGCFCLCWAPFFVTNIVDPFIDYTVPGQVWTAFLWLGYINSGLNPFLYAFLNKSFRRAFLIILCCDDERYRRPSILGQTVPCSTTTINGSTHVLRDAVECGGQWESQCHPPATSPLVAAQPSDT

[5] = molecular target: 5-hydroxytryptamine receptor 7 (Homo sapiens) (UniProt P34969); assay: Antagonist activity at human 5HT7 receptor expressed in HEK293 cells assessed as inhibition of 5HT-induced intracellular calcium level at 10 uM incubated for 15 mins prior to 5HT-induction measured after 1 hr by fluo-4-AM-based fluorimetry
Chain of 5-hydroxytryptamine receptor 7 (Homo sapiens) (P34969 whole entry): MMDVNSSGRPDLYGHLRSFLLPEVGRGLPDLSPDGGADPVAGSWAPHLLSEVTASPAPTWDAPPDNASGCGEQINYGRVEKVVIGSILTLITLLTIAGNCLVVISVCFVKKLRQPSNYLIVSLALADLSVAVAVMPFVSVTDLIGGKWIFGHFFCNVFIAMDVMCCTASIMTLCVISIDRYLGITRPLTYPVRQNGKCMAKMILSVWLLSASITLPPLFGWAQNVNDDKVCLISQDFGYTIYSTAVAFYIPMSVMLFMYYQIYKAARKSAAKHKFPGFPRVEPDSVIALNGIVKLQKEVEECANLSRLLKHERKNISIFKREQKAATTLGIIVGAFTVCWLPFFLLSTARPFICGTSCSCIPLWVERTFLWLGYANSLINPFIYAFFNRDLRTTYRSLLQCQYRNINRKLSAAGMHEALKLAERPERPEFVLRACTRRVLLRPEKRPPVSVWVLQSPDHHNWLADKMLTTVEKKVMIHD

T1 sequence (P50406 whole entry): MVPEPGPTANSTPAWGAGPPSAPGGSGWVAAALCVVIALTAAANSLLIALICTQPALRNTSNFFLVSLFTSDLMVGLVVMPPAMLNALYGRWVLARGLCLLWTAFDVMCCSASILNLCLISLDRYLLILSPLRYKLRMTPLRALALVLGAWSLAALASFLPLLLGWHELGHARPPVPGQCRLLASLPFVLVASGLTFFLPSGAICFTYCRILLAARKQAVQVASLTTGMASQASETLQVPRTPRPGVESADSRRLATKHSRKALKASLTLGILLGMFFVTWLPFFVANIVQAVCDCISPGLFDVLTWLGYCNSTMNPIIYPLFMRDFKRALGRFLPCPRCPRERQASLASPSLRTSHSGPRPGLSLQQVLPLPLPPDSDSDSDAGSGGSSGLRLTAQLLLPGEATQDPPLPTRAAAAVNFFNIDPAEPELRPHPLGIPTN

inhibition [1] [%] | IC50 [2] [nM] | inhibition [3] [%] | inhibition [4] [%] | inhibition [5] [%] | Structure (SMILES)
10.8 | – | – | – | – | CN(C)/C=N/c1nsc2ccc(NS(=O)(=O)c3c(F)cccc3F)cc12
20.2 | – | – | – | – | CN(C)/C=N/c1nsc2ccc(NS(=O)(=O)c3ccc(F)cc3)cc12
9.8 | – | – | – | – | CN(C)/C=N/c1nsc2ccc(NS(=O)(=O)c3ccc([N+](=O)[O-])cc3)cc12
66.3 | – | – | – | – | CN(C)/C=N/c1nc2cc(NS(=O)(=O)c3ccc4ccccc4c3)ccc2s1
84.3 | 360 | 86.5 | 21.9 | 68.8 | Cc1ccc(S(=O)(=O)Nc2ccc3snc(/N=C/N(C)C)c3c2)cc1
27 | – | – | – | – | CC(C)c1ccc(S(=O)(=O)Nc2ccc3snc(/N=C/N(C)C)c3c2)cc1
42.6 | – | – | – | – | CN(C)/C=N/c1nsc2ccc(NS(=O)(=O)c3ccccc3)cc12
12.1 | – | – | – | – | CN(C)/C=N/c1nsc2ccc(NS(=O)(=O)c3cccc4cccnc34)cc12
99.1 | 440 | 98.8 | 17.4 | 28.9 | CN(C)/C=N/c1nsc2ccc(NS(=O)(=O)c3ccc4ccccc4c3)cc12
25.5 | – | – | – | – | CN(C)/C=N/c1nc2cc(NS(=O)(=O)c3cccc4ccccc34)ccc2s1
43.5 | – | – | – | – | CN(C)/C=N/c1nsc2ccc(NS(=O)(=O)c3cccc4ccccc34)cc12
51.1 | 3600 | 53.9 | 11.6 | 40.2 | CN(C)/C=N/c1nsc2ccc(NS(=O)(=O)c3ccc(Cl)cc3)cc12
